In US6281349A, “Method for nucleic acid purification using iodine” (priority 2000, dated 2001):

How the values were obtained:
Format in all cases: biochemical
[1] = biological target: T1, DNaseI (Promega) (Bos taurus, UniProt P00639); test: Residual nuclease activity test after iodine miniprep (Mg/Ca incubation, supercoiled to nicked plasmid); settings: 5 Units DNaseI added to cells, 5 mM MgCl2, CaCl2, 90 minutes at 37° C.
T1 construct: purchased Promega
Procedure: (§1) Cells from 1 mL of terrific broth culture of pUC18 in NM522 (EndoI+) were resuspended in 0.2 mL of resuspension buffer (A). #1: No exogenous nuclease, #2:5 micrograms Micrococcal nuclease (MN) (300 units Boehringer Mannheim), #3:5 Units DNaseI (Promega), were added to the respective cell samples before processing for the preparation of the plasmid. After processing by the preferred embodiment Iodine miniprep procedure an aliquot of each sample was made 5 mM each in MgCl2, CaCl2 and 20 mM Tris.HCl pH 8.3. After 90 minutes at 37° C. these were electrophoresed (bottom group) together with aliquots that had not been exposed to Mg/Ca (top group) in a 1% agarose gel with SYBR green II fluorescent dye for detection of nucleic acids.

[2] = biological target: T2, Micrococcal nuclease (MN) (Boehringer Mannheim) (Staphylococcus aureus, UniProt P00644); test: as above; settings: 5 micrograms MN (300 units) added to cells, 5 mM MgCl2, CaCl2, 90 minutes at 37° C.
T2 construct: purchased Boehringer Mannheim
Procedure: as §1

[3] = biological target: T3, Endonuclease I (Endo I), endogenous, E. coli NM522 (EndoI+) (Escherichia coli, UniProt P25736); test: as above; settings: preferred embodiment, 5 mM MgCl2, CaCl2, 90 minutes at 37° C., no exogenous nuclease
T3 construct: due to either the endogenous Endo I or to residual activity of either of the added nucleases; endogenous in cells; host or cells: E. coli NM522 (EndoI+)
Procedure: as §1

[4] = biological target: T4, Ribonuclease A (RNAase A, pancreatic ribonuclease) (Bos taurus, UniProt P61823); test: Residual RNAase activity test of plasmids purified with or without iodine (wheat germ rRNA degradation); settings: 50 mM iodine during potassium acetate precipitation, RNAase A 10 micrograms/mL in cell resuspension buffer, 37° C., 30 min
T4 sequence (P61823 27-150): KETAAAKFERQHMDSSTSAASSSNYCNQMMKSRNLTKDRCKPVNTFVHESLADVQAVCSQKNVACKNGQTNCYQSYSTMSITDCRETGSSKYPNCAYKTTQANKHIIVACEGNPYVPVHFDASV
Procedure: Plasmids were purified by two methods both using RNAase A at 10 micrograms/mL in the cell resuspension buffer. In the right hand sample 50 mM iodine was included during potassium acetate precipitation of unwanted cellular components. In the center lane iodine was not included in the potassium acetate buffer. These purified plasmid preparations, "plasmid+I2 " and "plasmid-I2 ", respectively were incubated with wheat germ RNA in a sensitive assay designed to test for the presence residual RNAase activity. Wheat germ rRNA (0.5 micrograms in 5 microlitres of resuspension buffer: Soln A) was incubated at 37° C. for 30 min either alone or with 2 microlitres of purified plasmid dissolved in Soln A. The resulting samples were electrophoresed in the presence of SYBR green II to detect the nucleic acids. The 28s and 18s components of wheat germ rRNA were not degraded when incubated with buffer alone (left channel) or with plasmids purified by the method employing RNAase A and iodine (right channel). The rRNA was degraded when incubated with plasmids purified with RNAase and without iodine (center channel).

T3 sequence (P25736 23-235): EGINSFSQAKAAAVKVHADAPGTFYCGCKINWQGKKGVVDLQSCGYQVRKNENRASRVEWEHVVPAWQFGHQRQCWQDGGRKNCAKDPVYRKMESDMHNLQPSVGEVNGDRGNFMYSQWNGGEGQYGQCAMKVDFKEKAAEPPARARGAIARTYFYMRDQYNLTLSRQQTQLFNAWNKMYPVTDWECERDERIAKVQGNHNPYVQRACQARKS
T1 sequence (P00639 23-282): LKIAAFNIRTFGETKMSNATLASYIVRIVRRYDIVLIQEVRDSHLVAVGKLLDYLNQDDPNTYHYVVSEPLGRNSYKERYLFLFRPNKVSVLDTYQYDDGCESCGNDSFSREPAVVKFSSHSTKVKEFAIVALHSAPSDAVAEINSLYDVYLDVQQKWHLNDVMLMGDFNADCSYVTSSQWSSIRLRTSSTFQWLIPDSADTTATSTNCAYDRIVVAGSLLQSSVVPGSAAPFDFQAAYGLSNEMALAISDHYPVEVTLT

With `II` [iodine] the “inactivation of DNaseI by iodine” value [1] was “lack of conversion of supercoiled plasmid (I) to nicked (II)”, the “inactivation of Micrococcal nuclease by iodine” value [2] was “lack of conversion of supercoiled plasmid (I) to nicked (II)” and the “inactivation of Endo I by iodine” value [3] was “lack of conversion of supercoiled plasmid (I) to nicked (II)”. The “inactivation of RNase by iodine” value [4] was “effective in inactivating RNAase”.
